In patent publication US6369101B1, “Therapeutic method to treat herpes virus infection” (Regents of the University of Minnesota, priority 1999, dated 2002):
Converted amounts (≈) assume the structure as drawn.

Legend:
HSV-1 (E377) [1] = assay: Cutaneous HSV-1 infection in rats, topical ointment; format: in vivo, rat; details: for effect on cutaneous HSV-1 infection (in words): topical ointment (2% betulin, 2% allobetulin, 5% Acyclovir) twice daily for 3 days from 18 hours after infection
HSV-1 (strain F) = assay: Plaque reduction assay, HSV-1 strain F in HEp-2 cells; format: cell-based, herpes simplex virus type 1
Protocol: (§1) HEp-2 cells were grown to monolayer in 24 well tissue culture plates in DMEM containing 10% fetal calf serum at 37° C. for 24-36 hours in the presence of 5% CO2. The monolayer of HEp-2 cells was infected with 0.1 ml of HSV- 1 (strain F) or HSV-2 (strain G) containing 100 pfu. The viruses were allowed to adsorb for 1 hour at 37° C. in the presence of 5% CO2. All wells containing virus infected cells except virus control were overlaid with 0.9 ml of DMEM and 1 ml of test compound. The virus control and cell control received DMEM only. All microtiter plates were incubated at 37° C. in the presence of 5% CO2 and observed twice daily for 72 hours for viral CPE. At the end of the experiment, plates were stained with 0.1% crystal violet and the results were quantified by counting plaque forming units.

HFF cells = assay: CC50 in HFF cells (Table 3); format: cell-based, human; details: HFF cells
Protocol: The cells were observed daily for any change in morphology. The rounding and lysis of cells were observed if the compound has cytotoxic effect. At the end of this time, the media-drug solution was removed and the cells washed. […] The cells-media mixture was then pipetted up and down several times to resuspend the cells and 0.2 ml of the cell suspension was added to 9.8 ml of trypan blue and cells were counted using hemocytometer. Each sample was counted three times with three replicate wells per sample.

HSV-1 strain F = assay: CPE inhibition, HSV-1 strain F in HEp-2 cells; as to Cytopathic Effect (CPE) Inhibition HSV-1 Strain F: key: +++ = Complete cytopathic effect; ++ = Moderate cytopathic effect; + = Minimum cytopathic effect; − = No cytopathic effect; format: cell-based, herpes simplex virus type 1; details: for Cytopathic Effect (CPE) Inhibition HSV-1 Strain F: conc. per compound (ng/ml)
HSV-1 (E377) [2] = assay: Cutaneous HSV-1 infection in guinea pigs, topical ointment; format: in vivo, guinea pig; details: topical ointment (2% betulin, 2% allobetulin, 5% Acyclovir) twice daily for 3 days
HSV-2 (strain G) = assay: Plaque reduction assay, HSV-2 strain G in HEp-2 cells; format: cell-based, herpes simplex virus type 2; details: HSV-2 virus control 47
Protocol: as §1

HSV-2 strain MS = assay: CPE inhibition assay, HSV-2 MS in human foreskin fibroblast cells; format: cell-based, herpes simplex virus type 2; details: for EC50 HSV-2 MS: CPE inhibition in HFF cells; as to Qualitative CPE at 2.0 ml dose HSV-2 MS: key: +++ = Complete cytopathic effect; ++ = Moderate cytopathic effect; + = Minimum cytopathic effect; − = No cytopathic effect
HSV-1 strain E-377 = assay: CPE inhibition assay, HSV-1 E377 in human foreskin fibroblast cells; format: cell-based, herpes simplex virus type 1; details: for EC50 HSV-1 E377: CPE inhibition in HFF cells; as to Qualitative CPE at 2.0 ml dose HSV-1 E377: key: +++ = Complete cytopathic effect; ++ = Moderate cytopathic effect; + = Minimum cytopathic effect; − = No cytopathic effect
[3] = Varicella-Zoster Virus section of Table 3
[4] = conc. per compound (ng/ml) (Acyclovir 250)
[5] = HFF cells, solution conc. per compound (ng/ml) (Acyclovir 250)

| Compound | effect on cutaneous HSV-1 infection (in words) (HSV-1 (E377) [1]) | CC50 (HFF cells; [3]) | Cytopathic Effect (CPE) Inhibition HSV-1 Strain F (HSV-1 strain F) | effect on cutaneous HSV-1 infection (in words) (HSV-1 (E377) [2]) | Plaque Reduction Assay Average pfu/10^5 Cells HSV-2 Strain G (HSV-2 (strain G); [4]) | EC50 HSV-2 MS (HSV-2 strain MS) | Qualitative CPE at 2.0 ml dose HSV-2 MS (HSV-2 strain MS; [5]) | EC50 HSV-1 E377 (HSV-1 strain E-377) | Qualitative CPE at 2.0 ml dose HSV-1 E377 (HSV-1 strain E-377; [5]) | also measured |
| --- | --- | --- | --- | --- | --- | --- | --- | --- | --- | --- |
| C=C(C)[C@@H]1CC[C@]2(CO)CC[C@]3(C)[C@H](CC[C@@H]4[C@@]5(C)CC[C@H](O)C(C)(C)[C@@H]5CC[C@]43C)[C@@H]12 [Betulin, lup-20(29)-ene-3β, 28-diol, reference compound] | diminished the signs of the infectious process | 14.1 ng/mL (≈ 0.0318 µM) | + | diminished the development of the clinical infectious process | 16 pfu/10^5 Cells | ~125 ng/mL (≈ 0.282 µM) | + | 250 ng/mL (≈ 0.565 µM) | +++ | number of typical HSV lesions (HSV-1 (E377) [1]; HSV-1, by the 4th to 8th days of infection, 2% ointment twice daily for 3 days): decreased rapidly; Plaque Reduction Assay Average pfu/10^5 Cells HSV-1 Strain F (HSV-1 (strain F); conc. per compound as in column Conc. (ng/ml), HSV-1 virus control 5): 0 pfu/10^5 Cells; Plaque Reduction Assay Average pfu/10^5 Cells HSV-1 Strain F (HSV-1 (strain F); conc. per compound as in column Conc. (ng/ml), HSV-1 virus control 5, listed as betulin): no plaque; CC50 (HFF cells; Human Cytomegalovirus section of Table 3): 14.2 ng/mL (≈ 0.0321 µM); anti HSV-1 activity (in words) (HSV-1 strain F; qualitative CPE inhibition assay): significant anti HSV-1 activity; anti HSV-2 activity (in words) (HSV-2 strain MS; HFF cells, HSV-2): significant anti HSV-2 activity; anti HSV-1 activity (in words) (HSV-1 strain E-377; HFF cells, HSV-1 (E377)): significant anti-HSV-1 activity |
| acycloguanosine [Acyclovir, reference compound] | same healing response | >100000 ng/mL | +++ | diminished the development of the clinical infectious process | 42 pfu/10^5 Cells | 6000 ng/mL | +++ | 1600 ng/mL | +++ | Plaque Reduction Assay Average pfu/10^5 Cells HSV-1 Strain F (HSV-1 (strain F); Conc. 12500 ng/ml, HSV-1 virus control 5): 0 pfu/10^5 Cells; Plaque Reduction Assay Average pfu/10^5 Cells HSV-1 Strain F (HSV-1 (strain F); Conc. 12500 ng/ml, HSV-1 virus control 5, listed as Acyclovir®): no plaque; Plaque Reduction Assay Average pfu/10^5 Cells HSV-2 Strain G (HSV-2 (strain G); Conc. 12500 ng/ml): 30 pfu/10^5 Cells; Qualitative CPE at 2.0 ml dose HSV-2 MS (HSV-2 strain MS; HFF cells, Conc. 12500 ng/ml): +; Qualitative CPE at 2.0 ml dose HSV-1 E377 (HSV-1 strain E-377; HFF cells, Conc. 12500 ng/ml): + |
